Values of other authors as cited in US20180255779A1, “TRIAZOLE FORMULATIONS” (Vive Crop Protection Inc., priority 2013, published 2018).
Where two headings read alike, the source gives them in different places.

Legend:
[1] = not given; remark: listed apart in the source
[2] = octanol-water

| Structure (SMILES) | Photolytic Stability, DT50 (pH 7) | Kow, log P [2] | other results |
| --- | --- | --- | --- |
| Fc1ccc([C@]2(Cn3cncn3)O[C@H]2c2ccccc2Cl)cc1 (racemic) [Epoxiconazole, (2RS,3SR)-1-[3-(2-chlorophenyl)-2,3-epoxy-2-(4-fluorophenyl)propyl]-1H-1,2,4-triazole] | DT50: 52 d (aqueous photolysis at pH 7) | – | – |
| CCCCC(C#N)(Cn1cncn1)c1ccc(Cl)cc1 (racemic) [Myclobutanil, (RS)-2-(4-chlorophenyl)-2-(1H-1,2,4-triazol-1-ylmethyl)hexanenitrile] | – | log P: 2.89 | Solubility ([1]; heptane at 20° C.): 1020 mg/L (heptane at 20° C.); Solubility ([1]; methanol and acetone, both at 20° C.): 250000 mg/L (methanol and acetone, both at 20° C.); Solubility ([1]; water at 20° C.): 132 mg/L (water at 20° C.); Photolytic Stability, DT50 (aqueous photolysis at pH 7): DT50: 15 d (aqueous photolysis at pH 7) |
| FC(F)C(F)(F)OCC(Cn1cncn1)c1ccc(Cl)cc1Cl (racemic) [Tetraconazole, (RS)-2-(2,4-dichlorophenyl)-3-(1H-1,2,4-triazol-1-yl)propyl 1,1,2,2-tetrafluoroethyl ether] | 217 days | – | – |
| CC1(C)CC/C(=C\c2ccc(Cl)cc2)C1(O)Cn1cncn1 (racemic) [Triticonazole, (RS)-(E)-5-(4-chlorobenzylidene)-2,2-dimethyl-1-(1H-1,2,4-triazol-1-ylmethyl)cyclopentanol] | DT50: 3.1 d (aqueous photolysis at pH 7) | – | – |
| CC(C1CC1)C(O)(Cn1cncn1)c1ccc(Cl)cc1 (stereo not drawn) [Cyproconazole, (2RS,3RS;2RS,3SR)-2-(4-chlorophenyl)-3-cyclopropyl-1-(1H-1,2,4-triazol-1-yl)butan-2-ol] | DT 50: 40 d (aqueous photolysis at pH 7) | – | – |
| CC1COC(Cn2cncn2)(c2ccc(Oc3ccc(Cl)cc3)cc2Cl)O1 (stereo not drawn) [Difenoconazole, 3-chloro-4-[(2RS,4RS;2RS,4SR)-4-methyl-2-(1H-1,2,4-triazol-1-ylmethyl)-1,3-dioxolan-2-yl]phenyl 4-chlorophenyl ether] | – | log P: 4.36 | – |
| CCCC1COC(Cn2cncn2)(c2ccc(Cl)cc2Cl)O1 (stereo not drawn) [Propiconazole, (2RS,4RS;2RS,4SR)-1-[2-(2,4-dichlorophenyl)-4-propyl-1,3-dioxolan-2-ylmethyl]-1H-1,2,4-triazole] | – | log P: 3.72 | Solubility ([1]; heptane at 20° C.): 1585 mg/L (heptane at 20° C.); Solubility ([1]; water at 20° C.): 150 mg/L (water at 20° C.) |
